Target: USP1 (construct USP1 (I-785, GG670, 671AA)/UAF1 (I-677)-Flag) (Homo sapiens (Human), UniProt O94782, G670A/G671A)
Experiment: Ubiquitin-Rhodamine 110 assay for USP1 activity
Assay type: biochemical
Details: USP1/UAF1 25 pM, Ub-Rh110 25 nM, 30 min preincubation
Protocol: Example 53: Ubitquin-Rhodamine 110 Assay for USP1 Activity
The HTS assay was performed in a final volume of 20 μL in assay buffer containing 20 mM Tris-HCl (pH 8.0, (1M Tris-HCl, pH 8.0 solution; Corning 46-031-CM)), 2 mM CaCl2 (1M Calcium Chloride solution; Sigma #21114) 1 mM GSH (L-Glutathione reduced; Sigma #G4251), 0.01% Prionex ([…] filtered, Sigma #G-0411), and 0.01% Triton X-100. Stock compound solutions were stored at −20° C. as 10 mM in DMSO. Up to 1 month prior to the assay, 2 mM test compounds were pre-dispensed into assay plates (Black, low volume; Corning #3820) and frozen at −20° C. Prestamped assay plates were allowed to come to room temperature on the day of the assay. For the screen, 100 nL of 2 mM was pre-dispensed for a final screening concentration of […] (DMSO(fc)=0.5%). The final concentration of the enzyme (USP1, construct USP1 (I-785, GG670, 671AA)/UAF1 (I-677)-Flag; Viva) in the assay was 100 pM. Final substrate (Ub-Rh110; Ubiquitin-Rhodamine 110, R&D Systems #U-555) concentration was 25 nM with [Ub-Rh110]<<Km. […] Plates were incubated stacked for 45 minutes at room temperature before fluorescence was read on the Envision (Excitation at 485 nm and Emission at 535 nm; Perkin Elmer) or on the PheraSTAR (Excitation at 485 nm and Emission at 535 nm; BMG Labtech)
Nanoliter quantities of either an 8-point or 10-point, 3-fold serial dilution in DMSO was pre-dispensed into assay plates (Perkin Elmer, ProxiPlate-384 F Plus, #6008269) for a final test concentration range of either 25 μM to 11 nM or 25 μM to 1.3 nM, respectively. The final concentration of the enzyme (USP1, construct USP1 (I-785, GG670, 671AA)/UAF1 (I-677)-Flag; Viva) in the assay was 25 pM. Final substrate (Ub-Rh110; Ubiquitin-Rhodamine 110, R&D Systems #U-555) concentration was 25 nM with [Ub-Rh110]<<Km. […] Plates were incubated stacked for 20 minutes at room temperature before 5 μL of stop solution (final concentration of 10 mM citric acid in assay buffer (Sigma, #251275-500G)). Fluorescence was read on the Envision (Excitation at 485 nm and Emission at 535 nm; Perkin Elmer) or on the PheraSTAR (Excitation at 485 nm and Emission at 535 nm; BMG Labtech).
For both assay formats data were reported as percent inhibition compared with control wells based on the following equation: % inh=[1−((FLU−AveLow)/(AveHigh−AveLow))]×100 where FLU=measured Fluorescence, AveLow=average Fluorescence of no enzyme control (n=16), and AveHigh=average Fluorescence of DMSO control (n=16). IC50 values were determined by curve fitting of the standard 4 parameter logistic fitting algorithm included in the Activity Base software package: IDBS XE Designer Model205. Data is fitted using the Levenburg Marquardt algorithm.

Sequence of USP1 (construct USP1 (I-785, GG670, 671AA)/UAF1 (I-677)-Flag) (O94782 whole entry G670A/G671A): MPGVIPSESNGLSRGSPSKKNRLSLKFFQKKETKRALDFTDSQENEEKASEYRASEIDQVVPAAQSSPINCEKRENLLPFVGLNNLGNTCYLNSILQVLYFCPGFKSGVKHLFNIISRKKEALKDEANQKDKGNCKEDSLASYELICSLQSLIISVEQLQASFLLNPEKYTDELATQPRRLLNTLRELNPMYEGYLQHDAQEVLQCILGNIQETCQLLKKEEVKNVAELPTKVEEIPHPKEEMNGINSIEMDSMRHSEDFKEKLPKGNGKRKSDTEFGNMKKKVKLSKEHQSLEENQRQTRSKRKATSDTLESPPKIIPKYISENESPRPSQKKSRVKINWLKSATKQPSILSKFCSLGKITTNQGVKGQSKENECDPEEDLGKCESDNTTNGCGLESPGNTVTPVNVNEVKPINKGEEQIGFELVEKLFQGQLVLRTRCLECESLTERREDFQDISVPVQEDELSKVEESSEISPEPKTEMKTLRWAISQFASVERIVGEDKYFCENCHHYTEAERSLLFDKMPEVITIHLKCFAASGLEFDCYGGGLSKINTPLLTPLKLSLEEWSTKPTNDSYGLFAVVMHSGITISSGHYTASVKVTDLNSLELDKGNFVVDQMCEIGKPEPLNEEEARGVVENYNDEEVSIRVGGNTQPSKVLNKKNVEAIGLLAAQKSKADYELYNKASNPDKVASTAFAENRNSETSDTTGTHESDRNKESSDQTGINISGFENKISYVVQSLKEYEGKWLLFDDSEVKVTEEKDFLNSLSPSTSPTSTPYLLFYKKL
Sequence of USP1 (construct USP1 (I-785, GG670, 671AA)/UAF1 (I-677)-Flag) (Q8TAF3 whole entry partner): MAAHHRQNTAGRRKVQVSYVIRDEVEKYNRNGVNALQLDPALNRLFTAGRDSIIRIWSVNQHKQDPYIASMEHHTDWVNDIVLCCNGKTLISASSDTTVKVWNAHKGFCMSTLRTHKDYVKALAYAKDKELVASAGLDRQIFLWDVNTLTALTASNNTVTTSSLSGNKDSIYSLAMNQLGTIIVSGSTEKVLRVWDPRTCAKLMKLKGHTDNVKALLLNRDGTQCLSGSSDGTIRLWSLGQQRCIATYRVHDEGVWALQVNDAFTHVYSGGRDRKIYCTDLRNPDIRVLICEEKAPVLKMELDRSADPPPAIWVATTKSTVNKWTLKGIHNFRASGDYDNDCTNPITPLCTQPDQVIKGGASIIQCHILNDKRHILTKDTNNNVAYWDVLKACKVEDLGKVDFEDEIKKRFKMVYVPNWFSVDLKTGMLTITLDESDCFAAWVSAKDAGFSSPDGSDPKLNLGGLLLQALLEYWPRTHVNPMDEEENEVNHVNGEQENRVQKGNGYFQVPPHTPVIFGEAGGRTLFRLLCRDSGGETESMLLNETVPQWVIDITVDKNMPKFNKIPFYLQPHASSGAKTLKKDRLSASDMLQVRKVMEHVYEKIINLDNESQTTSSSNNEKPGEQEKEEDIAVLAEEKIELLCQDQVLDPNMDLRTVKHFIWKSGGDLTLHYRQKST

With `CC(C)c1ccccc1-c1ncc2[nH]c(=O)n(Cc3ccc(-n4cc(CCO)nn4)cc3)c2n1` [Compound I-342, 9-(4-(4-(2-hydroxyethyl)-1H-1,2,3-triazol-1-yl)benzyl)-2-(2-isopropylphenyl)-7,9-dihydro-8H-purin-8-one] as the molecule, how does the IC50 read?
Its IC50 is 200 to 2000 nM.

Which IC50 does the source give for `CC(C)c1ccccc1-c1ncc2[nH]c(=O)n(Cc3ccc(-c4nc(N5CCOCC5)n(C)n4)cc3)c2n1` [Compound I-292, 2-(2-isopropylphenyl)-9-(4-(1-methyl-5-morpholino-1H-1,2,4-triazol-3-yl)benzyl)-7,9-dihydro-8H-purin-8-one] here?
The IC50 was 50 to 200 nM.

For `Cn1cc(C(F)(F)F)nc1-c1ccc(Cn2c(=O)[nH]c3cnc(-c4cccnc4OC(F)F)nc32)cc1` [Compound I-35, 2-(2-(difluoromethoxy)pyridin-3-yl)-9-(4-(1-methyl-4-(trifluoromethyl)-1H-imidazol-2-yl)benzyl)-7,9-dihydro-8H-purin-8-one], which IC50 is on record?
Its IC50 is < 50 nM.

`CC(C)c1ccccc1-c1ncc2[nH]c(=O)n(Cc3ccc(C(=O)NCCN4CCCCC4)cc3)c2n1` [Compound I-409, 4-((2-(2-isopropylphenyl)-8-oxo-7,8-dihydro-9H-purin-9-yl)methyl)-N-(2-(piperidin-1-yl)ethyl)benzamide] was tested. Which IC50 did it give?
Its IC50 is > 2000 nM.

For `CC(C)c1ccccc1-c1ncc2c(n1)n(Cc1ccc(-c3nccn3C3CCNCC3)cc1)c(=O)n2C` [Compound I-499, 2-(2-isopropylphenyl)-7-methyl-9-(4-(1-(piperidin-4-yl)-1H-imidazol-2-yl)benzyl)-7,9-dihydro-8H-purin-8-one], which IC50 is on record?
The IC50 was < 50 nM.

How did the IC50 turn out when `CC(C)c1ccccc1-c1ncc2[nH]c(=O)n(Cc3ccc(-n4cc(CS(C)(=O)=O)nn4)cc3)c2n1` [Compound I-350, 2-(2-isopropylphenyl)-9-(4-(4-((methylsulfonyl)methyl)-1H-1,2,3-triazol-1-yl)benzyl)-7,9-dihydro-8H-purin-8-one] was run?
Its IC50 is > 2000 nM.

Which IC50 does the source give for `COc1ccnn1-c1ccc(Cn2c(=O)[nH]c3cnc(-c4ccccc4C(C)C)nc32)cc1` [Compound I-206, 2-(2-isopropylphenyl)-9-(4-(5-methoxy-1H-pyrazol-1-yl)benzyl)-7,9-dihydro-8H-purin-8-one] here?
The IC50 was < 50 nM.

Which IC50 does the source give for `CC(C)c1ccccc1-c1ncc2[nH]c(=O)n(Cc3ccc(-c4cnn(C)c4CC(=O)O)cc3)c2n1` [Compound I-254, 2-(4-(4-((2-(2-isopropylphenyl)-8-oxo-7,8-dihydro-9H-purin-9-yl)methyl)phenyl)-1-methyl-1H-pyrazol-5-yl)acetic acid] here?
Its IC50 is > 2000 nM.

Which IC50 does the source give for `COCCn1ccnc1-c1ccc(Cn2c(=O)n(C)c3cnc(-c4ccccc4C(C)C)nc32)cc1` [Compound I-498, 2-(2-isopropylphenyl)-9-(4-(1-(2-methoxyethyl)-1H-imidazol-2-yl)benzyl)-7-methyl-7,9-dihydro-8H-purin-8-one] here?
The IC50 was < 50 nM.

`CC(C)c1ccccc1-c1ncc2c(n1)n(Cc1ccc(-c3nc(C(F)(F)F)cn3C3CN(C)C3)cc1)c(=O)n2C` [Compound I-448, 2-(2-isopropylphenyl)-7-methyl-9-(4-(1-(1-methylazetidin-3-yl)-4-(trifluoromethyl)-1H-imidazol-2-yl)benzyl)-7,9-dihydro-8H-purin-8-one] was tested. Which IC50 did it give?
Its IC50 is < 50 nM.

`Cc1cc(C)n([C@H]2CC[C@@H](Cn3c(=O)[nH]c4cnc(-c5ccccc5C(C)C)nc43)CC2)n1` [Compound I-212, 9-(((1s,4s)-4-(3,5-dimethyl-1H-pyrazol-1-yl)cyclohexyl)methyl)-2-(2-isopropylphenyl)-7,9-dihydro-8H-purin-8-one] was tested. Which IC50 did it give?
Its IC50 is < 50 nM.

`Cc1c(-c2ccc(Cn3c(=O)[nH]c4cnc(-c5ccccc5C(C)C)nc43)cc2)cnn1C` [Compound I-252, 9-(4-(1,5-dimethyl-1H-pyrazol-4-yl)benzyl)-2-(2-isopropylphenyl)-7,9-dihydro-8H-purin-8-one] was tested. Which IC50 did it give?
The IC50 was 50 to 200 nM.

How did the IC50 turn out when `CC(C)c1ccccc1-c1ncc2c(n1)n(Cc1ccc(-c3nc(C(N)=O)n(C)n3)cc1)c(=O)n2C` [Compound I-278, 3-(4-((2-(2-isopropylphenyl)-7-methyl-8-oxo-7,8-dihydro-9H-purin-9-yl)methyl)phenyl)-1-methyl-1H-1,2,4-triazole-5-carboxamide] was run?
Its IC50 is 50 to 200 nM.

Reference: patent US10189841B2, “Purinones as ubiquitin-specific protease 1 inhibitors” (Forma Therapeutics, Inc., priority 2015, dated 2019)
